The source of these data is the METLIN SMRT retention time set (Domingo-Almenara et al. 2019).

Each structure is given as a SMILES string.

The nature of this data set: gradient 5% acetonitrile 3 min, to 50% in 2 min, to 85% in 15 min, held 3 min, 100 µL/min. As to conditions: column: Zorbax Extend-C18 2.1 x 50 mm; eluents: water / acetonitrile, 0.1% formic acid. A digest of the protocol: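 Over 3 months, pure standards in mixtures of ~100 molecules were run by HPLC coupled to a quadrupole time-of-flight mass spectrometer in positive and negative ionization mode. The column was a Zorbax Extend-C18 (2.1 × 50 mm, 1.8 μm) at 100 μL/min, eluted with water and acetonitrile each holding 0.1% formic acid, with 40 μL dead and 900 μL dwell volumes. Retention time was determined from adduct peaks chosen by software and checked manually.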
In the case of `CC(=O)c1cccc(OC(=O)c2cc3c(C)nn(-c4ccccc4)c3s2)c1`, the RP-LC retention time was found to be 1310 s. The compound `Cc1ccc(NC(=O)Nc2cccn3nc(C4CC4)nc23)cc1` had an RP-LC retention time of 912 s. `Cc1ccc(-c2nnc(-c3ccccc3)o2)cc1S(=O)(=O)N1CCC(C)CC1`: the RP-LC retention time came out at 1210 s. Compound `CCCNc1cc(N2CCC(CCC(=O)N3CCN(c4ccccc4)CC3)CC2)ncn1` returned an RP-LC retention time of 603 s. Consider `CC1(C(=O)NCc2ccc(F)cc2)CN(S(C)(=O)=O)CC(=O)N1c1cccc(F)c1` (configuration not stated), for which the RP-LC retention time came to 764 s. `O=S(=O)(NCC(c1cccnc1)N1CCN(c2ccc(F)cc2)CC1)c1cccs1` (configuration not stated) had an RP-LC retention time of 618 s. Compound `CCOC(=O)c1noc2ncnc(NCCc3ccccc3)c12` had an RP-LC retention time of 936 s.

On to `O=C(C1CC1)N1CCc2sc(S(=O)(=O)NCc3ccc4c(c3)OCO4)cc2C1`, for which the RP-LC retention time is 812 s. Compound `CC(C)NC(=O)C1CCCN(c2nc3ncn(CC(=O)Nc4cc(F)cc(F)c4)c(=O)c3s2)C1` (configuration not stated) registered an RP-LC retention time of 747 s. Compound `Cc1cc(C)cc(C(=O)Nc2ccc3c(c2)Sc2ncccc2C(=O)N3C)c1` yielded an RP-LC retention time of 888 s. For the compound `CC(NC(=O)c1ccco1)C(=O)NCc1nn(C)c2ccccc12` (configuration not stated), the RP-LC retention time amounted to 646 s.

In the case of `Cc1ccc(Oc2cccc(C(=O)NCc3ccc(F)cc3)c2)nn1`, the RP-LC retention time is 681 s. For the compound `CCCN(CC1CCOC1)C(=O)Nc1cccc(SC)c1` (configuration not stated), the RP-LC retention time was 831 s.

`CS(=O)(=O)N1CCC(OC2CCN(C(=O)Cc3c[nH]c4ccccc34)CC2)CC1`: the RP-LC retention time came to 688 s. As to `COC(=O)[C@H]1[C@H]2C[C@H]3c4[nH]c5ccccc5c4CCN3C[C@H]2CC[C@@H]1O`, the RP-LC retention time was determined as 671 s. In the case of `O=C(Cn1nc2n(c1=O)CCCCC2)Nc1ccc(F)cc1`, the RP-LC retention time was found to be 666 s. Turning to `Cc1ccccc1N1CCN(C(=O)c2cn(-c3cc(N4CCSCC4)ncn3)cn2)CC1`, the RP-LC retention time came out at 1040 s. Consider `CCOc1ccccc1CN1CCc2nc(Nc3ccc(F)cc3)ncc2C1`, for which the RP-LC retention time turned out to be 616 s. Next, `O=C(c1ccc2c(c1)OCO2)N1CCC2(CC1)NC(=O)N(Cc1ccc(Cl)cc1)C2=O`: 811 s. With `COc1ccc(-c2csc(Nc3ccc(Br)cn3)n2)cc1`, the RP-LC retention time was 1170 s.

In turn, `COc1ccc(Nc2cc(C)nc(N)n2)cc1` registered an RP-LC retention time of 644 s. Next, `CCOC(=O)c1ccc2nc(C)cc(NC(=O)c3ccco3)c2c1`: 583 s. `O=C(NCc1ccco1)C1CN(S(=O)(=O)c2ccccc2)CC12CCCCC2` (configuration not stated) displayed an RP-LC retention time of 942 s.

As to `COc1cccc(-c2noc(C3CCCN3C(=O)Nc3ccc4c(c3)OCCO4)n2)c1` (configuration not stated), the RP-LC retention time amounted to 886 s. With `COc1cc2c(cc1OC)-c1cc(=Nc3c(C)cc(C)cc3C)n(C)c(=O)n1CC2`, the RP-LC retention time stood at 765 s. The same measure for `Cc1ccc(-n2cc3c(N4CCCC(C(=O)NC(C)c5ccc(F)cc5)C4)ncnc3n2)cc1` (configuration not stated): 741 s. Regarding `Cc1nc(-c2ccncc2)nc2c1CCC(=O)N2CCCN(C)C`, the RP-LC retention time was determined as 549 s. Next, `Cc1ccc2c(c1)N(S(C)(=O)=O)CCC(C(=O)Nc1ccc(C)c(C)c1)O2` (configuration not stated): 912 s; `CC1=C(c2ccc(C)cc2)S(=O)(=O)N=C1N1CCCN(C(=O)c2ccccc2)CC1`: 837 s; `Cc1ccccc1-c1noc(-c2cccn(CC(=O)N3CCCC3)c2=O)n1`: 750 s. As for `Cc1ccc(C(=O)N(CCCN)[C@@H](c2oc3cc(Cl)ccc3c(=O)c2Cc2ccccc2)C(C)C)cc1`, the RP-LC retention time is 863 s. The same measure for `COc1cc(Cl)ccc1-c1nc(-c2cccc(-c3ccn[nH]3)c2)no1`: 1060 s.
